In patent publication US20240102060A1, “ENZYMES AND METHODS FOR FERMENTATIVE PRODUCTION OF MONOTERPENE ESTERS” (ISOBIONICS B.V., priority 2020, published 2024):

system: not listed separately; test: Conversion of linalool to linalyl acetate by E. coli BL21-RIL expressing Citrus bergamia AAT variants, GC FID; type: cell-based; conditions: dodecane with 5 mM linalool (racemic), overnight at 18° C.
Description: To this end, the three different variants, and an empty pACYC-DUET-1, were introduced into chemical competent E. coli BL21-RIL (Stratagene), by heat shock transformation, and selected on LB-agar with 1% glucose and […] chloramphenicol. Transformants were transferred to 5 ml LB liquid medium with 1% glucose and 50 ug/ml chloramphenicol and grown overnight at 37° C. and 250 rpm.
(§1) 200 μL of those cultures was transferred to 20 mL of LB medium with the appropriate antibiotic in a 100 mL Erlenmeyer flask, and incubated at 37° C., 250 rpm until the A600 was 0.4 to 0.6. […] The next day, dodecane layer was recovered by centrifugation (10 min at 8000×g), diluted in ethyl acetate and analysed by GC FID.

| Molecule | conversion of linalool to linalyl acetate |
| --- | --- |
| AAT9-1-c: alcohol acyl transferase (AAT) from Citrus bergamia, variant AAT9-1-c, amino acid sequence SEQ ID NO: 2 (protein, listed as Citrus bergamia) MKIDVETISREMIKPSTPTPNHLRHYQFSHLDQIGPPFYISLLYFYHLDDDKLVSNNRHLFSDSLKSSLSNVLTKYYPLAGRIKNNYVDCNDEGVFFSEAKVSCQLSEIINEPEFPSEFKKLLPFDQEKDVVSFDSLAIAIQVNMFNCGNVAVAVMISHKIADGSSLSTFTKNWAAAARGESENVFPEFVAARLFPPEDAGGGSGTSFDPRPKKVVLKKFLFEGSKITALRDKYGFDNRIYPTRVEALSAFLWSRLAASNRIKVSSERPCMLIHAVNLRKRVEPQLPADSFGNLFAFAVTVLDENDDDGMVNKFRDAISKIDKDYLKAKKVEHSELIDLGITNGEKFGGGELGYCIISSLCKFPVYEADFGLGKPTWVAWGCFPYKNVIHFIDAKSGDGIEVWVHLEKEVMAKFENDQELLAYVST | linalool was converted to linalyl acetate |
| AAT9-1-a: inactive variant of the alcohol acyl transferase from Citrus bergamia, Tryptophan at position 371, SEQ ID NO: 6 (protein, listed as Citrus bergamia) MKIDVETISREMIKPSTPTPNHLRHYQFSHLDQIGPPFYISLLYFYHLDDDKLVSNNRHLFSDSLKSSLSNVLTKYYPLAGRIKNNYVDCNDEGVFFSEAKVSCQLSEIINEPEFPSEFKKLLPFDQEKDVVSFDSLAIAIQVNMFNCGNVAVAVMISHKIADGSSLSTFTKNWAAAARGESENVFPEFVAARLFPPEDAGGGSGTSFDPRPKKVVLKKFLFEGSKITALRDKYGFDNRIYPTRVEALSAFLWSRLAASNRIKVSSERPCMLIHAVNLRKRVEPQLPADSFGNLFAFAVTVLDENDDDGMVNKFRDAISKIDKDYLKAKKVEHSELIDLGITNGEKFGGGELGYCIISSLCKFPVYEADFWLGKPTWVAWGCFPYKNVIHFIDAKSGDGIEVWVHLEKEVMAKFENDQELLAYVST | could not be observed |
| AAT9-2-a: inactive variant of the alcohol acyl transferase from Citrus bergamia, SEQ ID NO: 8 (protein, listed as Citrus bergamia) MKISVETISREMIKPSTPTPNHLRHYHFSYLDQTAPPLYMSLLYFYHLDDHKLVSNNNHLFINSLKSSLSNVLTKYYPLAGRVKNNYVDCNDEGVVFSEAKVSCLLSEIINELPSEFNKLHPFDQEKDVVSINGLPIAIQVNMFNCGSVAIAVMIFHKIADAASLITFTKNWAAAARGGSGNVFPEFVAARLFPPQDAGGSSGVSVDPRPKKIVLKKFLFEGPKITALRDKYGLDNGIYPTRVEALSAFIWSRLAASTRIKISPERPYMLVHLVNLRKRMEPPLPDDSFGNIIGAAVTVLEENDDDDRMVNKFRDAICKVDKDYLKVMKLEHSELTDLVITNGEIVDRGELGYCFFSSLCKFPVYEADFGLGKPMWVAWGRLPYKNIIHLIDTKSGDGIEAWIHLEEEVMAKFGNDQELLAYVSP | could not be observed |

system: AAT9-1-c (SEQ ID NO: 2); test: Monoterpene and sesquiterpene alcohols tested in the presence of E. coli cells expressing AAT9-1-c; type: cell-based; conditions: E. coli cells expressing AAT9-1-c versus empty pACYCDUET-1
Description: as §1

| Molecule | conversion of the alcohol to its corresponding ester by AAT9-1-c |
| --- | --- |
| C[C@@H]1CC[C@H]2C(C)(C)[C@H]3C[C@@]12CC[C@@]3(C)O [cedrol] | not observed to be converted |
| CC(C)=CCC/C(C)=C/CO [geraniol] | corresponding esters could be observed |
| CC(C)=CCC[C@](C)(O)[C@@H]1CC=C(C)CC1 [(−)-alpha-bisabolol] | not observed to be converted |
| C=CC(C)(O)CCC=C(C)CCC=C(C)C (stereo not drawn) [nerolidol] | not observed to be converted |
| C[C@H]1CC[C@@]2(O)C(C)(C)[C@@H]3CC[C@@]2(C)[C@H]1C3 [patchoulol] | not observed to be converted |
| CC1=CC[C@@H](C(C)(C)O)CC1 [alpha terpineol] | corresponding esters could be observed |
| CC1=CC(O)C2CC1C2(C)C (stereo not drawn) [verbenol] | corresponding esters could be observed |

system: not listed separately; test: Initial test of Lavandula angustifolia alcohol acyl transferases on linalool; conditions: not given

| Molecule | linalool as a substrate |
| --- | --- |
| SEQ ID NO: 3: alcohol acyl transferase (AAT) from Lavandula angustifolia, internal designation 10056 (protein, listed as Lavandula angustifolia) MEIETRVISTEIIKPSSPTPKFLQNHRLSFLDQIAPPIFMPVVYFYESNTKFPNSQQSNHLKNSLSQVLTKFYPLAGRLVGNLYVDCDDGGVPFVEAEANFDLSQIITNPNPRNMSKFLPYNESHDFCMAVQATYFRCGGVAVGLLVSHKIADALSFFLFANFWSAVARSGEGGGGQPPKFDVATYFPPRDISGYEPSTGIMKEEITTRIFTFSDKKIAVLREKYAATGSGGDGDLPQRRPTRVEALSAFIWTRFINSTGVKSDPNKIYTVMHAVNLRTRTDPPLTEYHFGNISRLAIANPDVGESGVTDGGVELMQRVREAIKAVDGAYVADLKEGEKHLSLMREKMAQANKGELVSFSFTSLCRFPLYDADFGWGKPVWVGSAGFAYKNLVTFMDTRDGDGIEAWIHSRREDMEKFEVDLELQDFLSHDKSSLISLV | may not prefer linalool as a substrate |
| SEQ ID NO: 4: alcohol acyl transferase (AAT) from Lavandula angustifolia, internal designation 1461 (protein, listed as Lavandula angustifolia) MEIEILSKQSIKPSSLTPSQLRDFKLSFIDERIPPFYIPLILYYTFDEQTNVNQSEMSDRLKTSLADALAKFYPLAGRMKGQISVDCNDQGVLCTEAIANANVLDIVSSPDPLVLDKLIPYVTNGFVSSAQEQLAIQITSFNCGGISIGICFSHRIADASTLSSFIKYWAATACRDRISAVSPVFNSATLFPPRNTPDFTPNPTSPSVRPLAPNLVIKRFLFSSQSINAMKLEVSRNSRILNPTRVEVVTALIWNRCVVAKGIERSNRSVAYHTLNLRGKIPALSERSFGNLFQMIKVESEAETTWILLVEKLRSAFEGFDVKKQLLGEKGFENAKENFMEISQLLRAGNVEVFRFSSYCRLAVYEADFGWGKPVWVSNSCYRNKNCVFLFDSVGSRGGIEAWIVMSERDMERLEQDLEFKRFASF | may not prefer linalool as a substrate |
